Laboratory results taken from US20230134986A1, “GLUCOSE TRIPTOLIDE CONJUGATES AND USES THEREOF” (The Johns Hopkins University, priority 2020, published 2023).

Legend:
HEK 293T cells = test: HEK293T cell proliferation assay ([3H]-thymidine incorporation); type: cell-based, human; details: Homo sapiens; anti-proliferative activity, HEK 293T cells, 24 h drug exposure; read-out: IC50 ± SEM
Source text: Cells and culture conditions. Primary astrocytes (Lonza, Walkersville, Md.; ABM™ Basal Media with AGM™ SingleQuots™ Supplement Pack), fibroblast (ATCC; Fibroblast Basal Medium (ATCC© PCS-201-030™) with Fibroblast Growth Kit-Serum-free (ATCC© PCS-201-040™)), airway epithelial cell (ATCC; Airway Epithelial Cell Basal Medium (ATCC© PCS-300-030™) with Bronchial Epithelial Cell Growth Kit (ATCC© PCS-300-040™)), renal proximal tubule (ATCC; Renal Epithelial Cell Basal Medium (ATCC© PCS-400-030™) with Renal Epithelial Cell Growth Kit (ATCC© PCS-400-040™)), prostate epithelial cell (Lonza; PrEGM™ BulletKit™) and mammary epithelial cell (Lonza; MEBM™ BulletKit™) were kept in a humidified incubator at 37° C. adjusted to 5% CO2. Prostate (PC3, LNCaP, DU-145), breast (MDA-MB-231, MDA-MB-453, SK-BR-3), head and neck (A253, Detroit 562, SCC-25), melanoma (SK-Mel-3, SK-Mel-1, RPMI-7951), pancreatic (CfPAC-1, BxPC3, SW1990), lung (A549, NCI-H1299, NCI-H1437) and liver (SNU-475, SK-HEP-1, SNU-387) cancer cell lines were obtained from ATCC and cultured in their respective media (prostate cells: RPMI-1640, MDA-MB-231: RPMI-1640, MDA-MB-453: Leibovitz's L-15, SK-BR-3: McCoy's 5a, A253: McCoy's 5a, Detroit 562: EMEM, SCC-25: DMEM, SK-Mel-3: McCoy's 5a, SK-Mel-1: EMEM, RPMI-7951: EMEM), CfPAC-1: IMDM, BxPC3: RPMI-1640, SW1990: Leibovitz's L-15), A549: F-12K, NCI-H1299: RPMI-1640, NCI-H1437: RPMI-1640, SNU-475: RPMI-1640, SK-HEP-1: EMEM, SNU-387: RPMI-1640. All media were supplemented with 10% (vol/vol) filtered fetal bovine serum (FBS, Invitrogen, Carlsbad, Calif.), 1% penicillin/streptomycin (Invitrogen) and maintained in a humidified incubator at 37° C. with 5% CO2 except for MDA-MB-453 and SW1990 grown at 37° C. without CO2 control. Wild type (ATCC) and C342T XPB knock-in cells (named T7115) of Human Embryonic Kidney 293T (HEK293T), HeLa (ATCC) were cultured in DMEM (GIBCO) with 10% (vol/vol) filtered fetal bovine serum (FBS, Invitrogen, Carlsbad, Calif.), 1% penicillin/streptomycin (Invitrogen).
(§1) Proliferation and viability assays. [^3H]-thymidine incorporation. HEK293T cells (10,000 cells/well) were seeded into 96-well plates then cultured in DMEM plus 10% FBS and 1% penicillin/streptomycin at 37° C. with 5% CO2 overnight. Drugs were added at indicated concentrations and incubation was continued for an additional 24 h. For hypoxia, PC3 (5,000 cells/well) were exposed to 1% O2 (Airgas) in a humidified hypoxia chamber (Billups-Rothenberg) in 37° C. for 48 h prior to drug exposure for 48 h. Treated cells were then pulsed using an aliquot of 1 μCi of [^3H]-thymidine (Perkin Elmer) per well for an additional 6 h. Radiolabelled cells were harvested onto a printed Filtermat A glass fiber filter (Perkin Elmer) using a Tomtec Harvester 96 Mach III M. Betaplate Scint (Perkin Elmer) scintillation fluid was added to radiolabelled filters followed by scintillation counting on Microbeta2 LumiJET Microplate Counter (Perkin Elmer).

[1] = cited from earlier work
PC3 cells = test: PC3 proliferation under hypoxia or normoxia ([3H]-thymidine incorporation); type: cell-based, human; details: hypoxia versus normoxia
Experimental: as §1

[2] = lethal case dosed with 18 mg/m2 F60008

Question: With CC(C)[C@]12O[C@H]1[C@@H]1O[C@]13[C@]1(O[C@H]1C[C@H]1C4=C(CC[C@@]13C)C(=O)OC4)[C@@H]2OC(=O)CCCC(=O)O[C@@H]1OC(CO)[C@@H](O)C(O)C1O (stereo partly shown) [Compound 6] as the compound, how does the IC50 (HEK 293T cells) read?
Answer: 1134 ± 1.15 nM

Question: Which IC50 (HEK 293T cells) does the source give for CC(C)[C@]12O[C@H]1[C@@H]1O[C@]13[C@]1(O[C@H]1C[C@H]1C4=C(CC[C@@]13C)C(=O)OC4)[C@@H]2OC(=O)CC(C)(C)C(=O)O[C@@H]1OC(CO)[C@@H](O)C(O)C1O (stereo partly shown) [Compound 2] here?
Answer: 3305 ± 0.98 nM

Question: With CC(C)C12OC1C1OC13C1(C)CCC4=C(COC4=O)C1CC1OC13C2OC(=O)CCC(=O)O (stereo not shown) [Compound F60008, triptolide-succinate] as the compound, how does the lethality in patients ([1]; administered with <12 mg/m^2 F60008) read?
Answer: no lethality was observed in 18 of the 20 patients

Question: And the “lethality in early human clinical study” value ([1]; highest dose of therapy)?
Answer: lethal to two patients

Question: And the Maximum serum levels [1, 2]?
Answer: 1,361 ng/mL

Question: What about the “Maximum serum levels (molar)” value [1, 2] of the same compound?
Answer: ~2.96 mM

Question: Which “change of potency under hypoxia” value (PC3 cells) does the source give for COc1cccc2c1C(=O)c1c(O)c3c(c(O)c1C2=O)C[C@@](O)(C(=O)CO)C[C@@H]3O[C@H]1C[C@H](N)[C@H](O)[C@H](C)O1 [doxorubicin] here?
Answer: decreased

Question: For CC(C)[C@]12O[C@H]1[C@@H]1O[C@]13[C@]1(O[C@H]1C[C@H]1C4=C(CC[C@@]13C)C(=O)OC4)[C@@H]2OC(=O)CC(C)(C)C(=O)O[C@H]1OC(CO)[C@@H](O)C(O)C1O (stereo partly shown) [Compound 3], which IC50 (HEK 293T cells) is on record?
Answer: 999 ± 0.217 nM

Question: With CO[C@H]1OC(COC(=O)CCC(=O)O[C@@H]2[C@@]3(C(C)C)O[C@H]3[C@@H]3O[C@]34[C@]23O[C@H]3C[C@H]2C3=C(CC[C@@]24C)C(=O)OC3)[C@@H](O)C(O)C1O (stereo partly shown) [Compound 9] as the compound, how does the IC50 (HEK 293T cells) read?
Answer: 395 ± 0.523 nM

Question: With CC(C)[C@]12O[C@H]1[C@@H]1O[C@]13[C@]1(O[C@H]1C[C@H]1C4=C(CC[C@@]13C)C(=O)OC4)[C@@H]2OC(=O)c1ccccc1C(=O)O[C@@H]1OC(CO)[C@@H](O)C(O)C1O (stereo partly shown) [Compound 4] as the compound, how does the IC50 (HEK 293T cells) read?
Answer: 5888 ± 1.19 nM

Question: With CC(C)[C@]12O[C@H]1[C@@H]1O[C@]13[C@]1(O[C@H]1C[C@H]1C4=C(CC[C@@]13C)C(=O)OC4)[C@@H]2OC(=O)c1ccccc1C(=O)O[C@H]1OC(CO)[C@@H](O)C(O)C1O (stereo partly shown) [Compound 5] as the compound, how does the IC50 (HEK 293T cells) read?
Answer: 6667 ± 2.03 nM

Question: For CC(C)[C@]12O[C@H]1[C@@H]1O[C@]13[C@]1(O[C@H]1C[C@H]1C4=C(CC[C@@]13C)C(=O)OC4)[C@@H]2OC(=O)CCC(=O)OCC1OC(O)C(O)C(O)[C@@H]1O (stereo partly shown) [Compound 8], which IC50 (HEK 293T cells) is on record?
Answer: 244 ± 0.81 nM

Question: With CC(C)[C@]12O[C@H]1[C@@H]1O[C@]13[C@]1(O[C@H]1C[C@H]1C4=C(CC[C@@]13C)C(=O)OC4)[C@@H]2OC(=O)CCCC(=O)O[C@H]1OC(CO)[C@@H](O)C(O)C1O (stereo partly shown) [Compound 7] as the compound, how does the IC50 (HEK 293T cells) read?
Answer: 735 ± 1.11 nM
